From ChEMBL document CHEMBL4196088, “Induction of cell killing and autophagy by amphiphilic pyrrolidine derivatives on human pancreatic cancer cells” (Eur J Med Chem, 2018)
Active and inactive are the calls of the source. The calls are words filed in the database; no cut-off is given here.

What was measured:
MIA PaCa-2 [1] = experiment: Antiproliferative activity against human MIAPaCa2 cells; format: functional, cell-based
PK9 [2] = experiment: Antiproliferative activity against human PK9 cells; format: functional, cell-based
Jurkat = experiment: Growth inhibition of human Jurkat cells after 72 hrs; format: functional, cell-based
ACHN = experiment: Growth inhibition of human ACHN cells after 72 hrs; format: functional, cell-based
NCI-H460 = experiment: Growth inhibition of human NCI-H460 cells after 72 hrs; format: functional, cell-based; settings: NCI-H460, 72 h
HeLa = experiment: Growth inhibition of human HeLa cells after 72 hrs; format: functional, cell-based
BXPC-3 [3] = experiment: Induction of apoptosis in human BxPC3 cells assessed as increase in cleaved PARP protein expression at 20 uM after 24 to 48 hrs by Western blot analysis; format: functional, cell-based
MIA PaCa-2 [4] = experiment: Induction of apoptosis in human MIAPaCa2 cells assessed as live cells at 20 uM after 24 hrs by Annexin V-FITC/propidium iodide staining based flow cytometry (reference value: 86.79%); format: functional
MIA PaCa-2 [5] = experiment: Induction of apoptosis in human MIAPaCa2 cells assessed as late apoptotic cells at 20 uM after 24 hrs by Annexin V-FITC/propidium iodide staining based flow cytometry (reference value: 7.4%); format: functional
PANC-1 [6] = experiment: Induction of apoptosis in human PANC1 cells assessed as accumulation at sub-G0/G1 phase at 10 uM after 72 hrs by propidium iodide staining based flow cytometry (reference value: 1.6 to 3.2%); format: functional
MIA PaCa-2 [7] = experiment: Induction of autophagy in human MIAPaCa2 cells assessed as increase in LC3-2 protein expression at 20 uM after 24 to 48 hrs by Western blot analysis; format: functional, cell-based
BXPC-3 [8] = experiment: Growth inhibition of human BxPC3 cells after 72 hrs by XTT assay; format: functional, cell-based; settings: BXPC-3, 72 h
PANC-1 [9] = experiment: Growth inhibition of human PANC1 cells after 72 hrs by XTT assay; format: functional, cell-based; settings: PANC-1, 72 h
PANC-1 [10] = experiment: Induction of apoptosis in human PANC1 cells assessed as accumulation at sub-G0/G1 phase at 10 uM after 24 hrs by propidium iodide staining based flow cytometry (reference value: 0.6 to 0.7%); format: functional
MIA PaCa-2 [11] = experiment: Induction of apoptosis in human MIAPaCa2 cells assessed as live cells at 20 uM after 48 hrs by Annexin V-FITC/propidium iodide staining based flow cytometry (reference value: 86.79%); format: functional
MIA PaCa-2 [12] = experiment: Induction of apoptosis in human MIAPaCa2 cells assessed as necrotic cells at 20 uM after 48 hrs by Annexin V-FITC/propidium iodide staining based flow cytometry (reference value: 0.63%); format: functional
MIA PaCa-2 [13] = experiment: Induction of apoptosis in human MIAPaCa2 cells assessed as early apoptotic cells at 20 uM after 24 hrs by Annexin V-FITC/propidium iodide staining based flow cytometry (reference value: 5.16%); format: functional
PANC-1 [14] = experiment: Induction of apoptosis in human PANC1 cells assessed as accumulation at sub-G0/G1 phase at 10 uM after 48 hrs by propidium iodide staining based flow cytometry (reference value: 0.2 to 2.9%); format: functional
PANC-1 [15] = experiment: Induction of apoptosis in human PANC1 cells assessed as accumulation at sub-G0/G1 phase at 20 uM after 24 hrs by propidium iodide staining based flow cytometry (reference value: 0.6 to 0.7%); format: functional
PANC-1 [16] = experiment: Induction of apoptosis in human PANC1 cells assessed as accumulation at sub-G0/G1 phase at 20 uM after 48 hrs by propidium iodide staining based flow cytometry (reference value: 0.2 to 2.9%); format: functional
PK9 [17] = experiment: Induction of apoptosis in human PK9 cells at 5 to 40 uM after 24 to 72 hrs by Annexin V/7-AAD staining based flow cytometry; format: functional, cell-based
MIA PaCa-2 [18] = experiment: Induction of apoptosis in human MIAPaCa2 cells assessed as early apoptotic cells at 20 uM after 48 hrs by Annexin V-FITC/propidium iodide staining based flow cytometry (reference value: 5.16%); format: functional
MIA PaCa-2 [19] = experiment: Induction of apoptosis in human MIAPaCa2 cells assessed as late apoptotic cells at 20 uM after 48 hrs by Annexin V-FITC/propidium iodide staining based flow cytometry (reference value: 7.4%); format: functional
MIA PaCa-2 [20] = experiment: Induction of apoptosis in human MIAPaCa2 cells assessed as necrotic cells at 20 uM after 24 hrs by Annexin V-FITC/propidium iodide staining based flow cytometry (reference value: 0.63%); format: functional
PANC-1 [21] = experiment: Induction of apoptosis in human PANC1 cells assessed as accumulation at sub-G0/G1 phase at 20 uM after 72 hrs by propidium iodide staining based flow cytometry (reference value: 1.6 to 3.2%); format: functional
[22] = Induction of apoptosis in HPNE cells at 5 to 40 uM after 24 to 72 hrs by Annexin V/7-AAD staining based flow cytometry; format: cell-based; settings: human
MIA PaCa-2 [23] = experiment: Induction of apoptosis in human MIAPaCa2 cells assessed as increase in cleaved PARP protein expression at 20 uM after 24 to 48 hrs by Western blot analysis; format: functional, cell-based
BXPC-3 [24] = experiment: Induction of autophagy in human BxPC3 cells assessed as increase in LC3-2 protein expression at 20 uM after 24 to 48 hrs by Western blot analysis; format: functional, cell-based
Fibroblast = experiment: Induction of apoptosis in human primary fibroblasts at 5 to 40 uM after 24 to 72 hrs by Annexin V/7-AAD staining based flow cytometry; format: cell-based

IC50 (MIA PaCa-2 [1]) [µM] | IC50 (BXPC-3 [8]) [µM] | IC50 (PANC-1 [9]) [µM] | Structure (SMILES) | IC50 (PK9 [2]) [µM] | Activity (PANC-1 [6]) [%] | Activity (PANC-1 [10]) [%] | Activity (PANC-1 [14]) [%] | Activity (PANC-1 [15]) [%] | Activity (PANC-1 [16]) [%] | Activity (PK9 [17]) | Activity (PANC-1 [21]) [%] | Activity [22] | Activity (Fibroblast) | other results
14 to 45 |  |  | CCCCCCCCCCCCc1cn(CC[C@H]2NC[C@@H](O)[C@H]2O)nn1 | 14 to 45 |  |  |  |  |  |  |  |  |  | 
14 to 45 |  |  | CCCCCCCCCCCCc1cn(C[C@@H]2N[C@@H](C)[C@@H](O)[C@H]2O)nn1 | 14 to 45 |  |  |  |  |  |  |  |  |  | 
14 to 45 |  |  | CCCCCCCCCCCCc1cn(C[C@H]2NC[C@H](O)[C@@H]2O)nn1 | 14 to 45 |  |  |  |  |  |  |  |  |  | 
 |  |  | CCCCCCCC/C=C\CCCCCCCCOC[C@H]1NC[C@H](O)[C@@H]1O |  |  |  |  |  |  |  |  |  |  | IC50 (Jurkat): 7 µM; IC50 (ACHN): 3 µM; IC50 (NCI-H460): 9 µM; IC50 (HeLa): 8 µM
 | 4.3 | 5 | CCCCCCCC/C=C\CCCCCCCCOC[C@@H]1CCCN1C(=O)[C@@H]1CCCN1.Cl |  | 56.3 | 2.6 | 12.3 | 4.4 | 21.3 | Active | 74.9 | Toxic | Toxic | Activity (BXPC-3 [3]): inactive; Activity (MIA PaCa-2 [4]): 83.47%; Activity (MIA PaCa-2 [5]): 8.64%; Activity (MIA PaCa-2 [7]): inactive; Activity (MIA PaCa-2 [11]): 81.02%; Activity (MIA PaCa-2 [12]): 0.16%; Activity (MIA PaCa-2 [13]): 6.78%; Activity (MIA PaCa-2 [18]): 10.86%; Activity (MIA PaCa-2 [19]): 7.94%; Activity (MIA PaCa-2 [20]): 1.1%; Activity (MIA PaCa-2 [23]): inactive; Activity (BXPC-3 [24]): inactive
 | 6 | 5.7 | Cl.NCC(=O)N1CCC[C@H]1COCCCCCC/C=C/c1ccc(-c2ccccc2)cc1 |  | 9.5 | 0.9 | 6.1 | 1.5 | 6.3 | Active | 24.7 | Toxic | Toxic | 
